The supplement of paper PMC10307832

Legend:
Assay in all cases: relative viability (nuclei count vs DMSO), 5 days (fraction); higher = more cells survive
VE-821 + Foretinib = compound: CS(=O)(=O)c1ccc(-c2cnc(N)c(C(=O)Nc3ccccc3)n2)cc1 [VE-821] + COc1cc2c(Oc3ccc(NC(=O)C4(C(=O)Nc5ccc(F)cc5)CC4)cc3F)ccnc2cc1OCCCN1CCOCC1 [Foretinib] (partner 0.25 µM)
Procedure, shortened: (§1)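 Relative viability divides the nuclei count in treated wells by that in vehicle wells. Lung cancer cell lines were seeded in 1536-well plates, dosed by pin tool the next day, and fixed and stained after 5 days in one step with final 0.05% Triton X-100, 1% formaldehyde and 1 ug/ml Hoechst. Dosing was a single drug or a fixed anchor-drug dose plus five library-drug doses (not always all listed) in √10 steps, and values are medians of duplicate plates imaged at 4×.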

Vismodegib + Luminespib = compound: CS(=O)(=O)c1ccc(C(=O)Nc2ccc(Cl)c(-c3ccccn3)c2)c(Cl)c1 [Vismodegib] + CCNC(=O)c1noc(-c2cc(C(C)C)c(O)cc2O)c1-c1ccc(CN2CCOCC2)cc1 [Luminespib] (partner 0.01 µM)
Procedure, shortened: as §1

Vismodegib + Foretinib = compound: CS(=O)(=O)c1ccc(C(=O)Nc2ccc(Cl)c(-c3ccccn3)c2)c(Cl)c1 [Vismodegib] + COc1cc2c(Oc3ccc(NC(=O)C4(C(=O)Nc5ccc(F)cc5)CC4)cc3F)ccnc2cc1OCCCN1CCOCC1 [Foretinib] (partner 0.25 µM)
Procedure, shortened: as §1

Ruxolitinib + AZD7762 = compound: N#CC[C@H](C1CCCC1)n1cc(-c2ncnc3[nH]ccc23)cn1 [Ruxolitinib] + NC(=O)Nc1cc(-c2cccc(F)c2)sc1C(=O)N[C@H]1CCCNC1 [AZD7762] (partner 0.2 µM)
Procedure, shortened: as §1

Cell Line	relative viability (VE-821 + Foretinib; first compound 0.08 µM)	relative viability (VE-821 + Foretinib; first compound 0.253 µM)	relative viability (VE-821 + Foretinib; first compound 0.8 µM)	relative viability (VE-821 + Foretinib; first compound 2.53 µM)	relative viability (VE-821 + Foretinib; first compound 8 µM)	relative viability (Vismodegib + Luminespib; first compound 0.08 µM)	relative viability (Vismodegib + Luminespib; first compound 0.253 µM)	relative viability (Vismodegib + Luminespib; first compound 0.8 µM)	relative viability (Vismodegib + Luminespib; first compound 2.53 µM)	relative viability (Vismodegib + Luminespib; first compound 8 µM)	relative viability (Vismodegib + Foretinib; first compound 0.08 µM)	relative viability (Vismodegib + Foretinib; first compound 0.253 µM)	relative viability (Vismodegib + Foretinib; first compound 0.8 µM)	relative viability (Vismodegib + Foretinib; first compound 2.53 µM)	relative viability (Vismodegib + Foretinib; first compound 8 µM)	relative viability (Ruxolitinib + AZD7762; first compound 0.08 µM)	relative viability (Ruxolitinib + AZD7762; first compound 0.253 µM)	relative viability (Ruxolitinib + AZD7762; first compound 0.8 µM)	relative viability (Ruxolitinib + AZD7762; first compound 2.53 µM)	relative viability (Ruxolitinib + AZD7762; first compound 8 µM)
NCI-H2342	1.25	0.917	0.951	1.1	1	0.588	0.728	0.748	0.79	0.71	0.984	1.04	1.06	0.949	0.947	0.429	0.447	0.488	0.422	0.649
LK-2	1.5	1.46	1.05	1.37	1.14	0.175	0.185	0.207	0.151	0.214	1.14	0.974	1.13	1.34	1.38	0.4	0.489	0.815	0.481	0.648
NCI-H1993	0.84	0.736	0.595	0.737	0.724	0.799	0.865	0.747	0.814	0.796	0.863	0.654	0.782	0.773	0.675	0.828	0.646	1.05	0.794	0.985
A-427	1.34	0.97	0.991	1.05	0.561	0.912	0.831	0.856	0.876	0.824	1	1.01	1.08	1.11	1.11	0.821	0.763	0.729	0.453	0.508
NCI-H2347	0.542	0.995	0.633	1.03	0.946	0.402	0.759	0.709	0.399	0.586	1.12	0.599		0.834	0.978	0.8	0.89	0.766	0.769	0.877
ChaGo-K-1	0.988	0.971	0.814	1	0.734	0.565	0.622	0.598	0.525	0.516	1.03	0.918	0.92	0.838	0.886	0.909	0.853	0.869	0.834	0.703
BEN	0.685	0.574	0.623	0.581	0.76	0.363	0.293	0.475	0.244	0.326	0.871	0.799	0.606	0.642	0.644	0.777	0.655	0.793	0.813	0.827
NCI-H23	1.19	1.13	0.889	0.688	0.39	0.25		0.198	0.258	0.227	0.925	0.899	1.01	0.593	1.2	0.456	0.303	0.279	0.206	0.277
LU99A	0.903	0.763	0.802	0.851	0.462	0.257	0.233	0.323	0.257	0.305	0.866	0.775	0.751	0.725	0.79	0.336	0.402	0.394	0.406	0.477
ABC-1	1.41	0.877	0.859	1.01	0.756	0.577	0.381	0.551	0.672	0.405	0.894	1.15	1.14	1.08	1.23		1.07	0.834	0.743	0.928
HCC-15	1.16	1.1	1.1	1.27	0.98	0.17	0.267	0.254	0.508	0.29	1.01	0.964	1.04	1.09	1.04	1.09	0.878	1.23	1.12	1.17
EPLC-272H	0.803	0.747	0.804	0.692	0.341	0.298	0.224	0.263	0.235	0.442	0.787	0.727	0.68	0.785	0.776	0.321	0.267	0.244	0.285	0.316
LXF-289	1.02	0.991	0.98	1.04	1.07	0.625	0.691	0.764	0.611	0.738	0.943	0.913	1.01	0.97	0.922	1.06	1.15	1.11	1.04	1
NCI-H460	1.02	0.979	0.841	0.919	0.17	0.0373	0.0299	0.038	0.0291	0.0297	0.948	0.951	1.04	0.975	1.08		0.626	0.696	0.656	0.676
NCI-H1734	0.972	0.854	0.805	1.02	0.722	0.19	0.186	0.166	0.198	0.189	0.875	0.869	0.876	0.772	0.946	0.638	0.629	0.662	0.54	0.602
PC-3 [JPC-3]	1.12	0.947	1.07	1.06	0.976	0.737	0.651	0.689	0.653	0.745	1.08	1.01	0.965	0.993	1.03		0.82	0.866	0.946	0.814
HCC-827	1.13	0.956	1.02	1.05	0.827	0.658	0.762	0.691	0.589	0.733	0.995	1.03	0.972	1.01	0.866		0.178	0.238	0.236	0.308
NCI-H2405	1.09	1.06	0.993	1.09	1.12	0.735	0.691	0.706	0.686	0.686	1.05	1.04	0.995	1.01	1.08	0.738	0.792	0.818	0.488	0.416
HOP-62	1.14	1.04	1.07	1.22	1.09	0.916	0.914	0.981	0.93	0.877	1.1	1.03	1.1	1.07	1.1	0.437	0.796	0.564	0.627	0.704
LCLC-97TM1	1.12	1.05	0.878	0.98	0.885	0.699	0.725	0.746	0.76	0.826	0.953	0.934	0.869	0.97	0.912	0.401	0.267	0.317	0.287	0.53
NCI-H3122	0.977	0.995	0.959	0.986	0.925	0.109	0.088	0.0658	0.073	0.0765	0.994	0.938	0.849	0.858	1.02	0.98	1.07	1.05	0.943	0.891
PC-14	1.1	0.913	0.974	1.02	0.984	0.132	0.137	0.151	0.165	0.14	0.91	0.948	0.984	0.998	0.963		0.356	0.363	0.347	0.359
NCI-H2170	1.01	0.972	0.952	0.958	0.798	0.677	0.513	0.762	0.645	0.7	0.996	1	1.04	1.02	1.08	0.908	0.834	0.959	0.76	0.706
HARA	1.06	0.888	0.798	0.812	0.574	0.699	0.843	0.888	0.655	0.779	0.977	0.992	0.41	0.805	1.03	0.344	0.365	0.377	0.0804	0.304
SW 900	0.848	0.997	0.836	0.916	0.681	0.183	0.164	0.164	0.19	0.163	0.743	0.622	0.761	0.655	0.857	0.656	0.525	0.722	0.891	0.833
NCI-H1395	1.05	1.01	0.826	0.98	0.828	0.708	0.764	0.535	0.624	0.621	0.918	0.873	0.999	0.961	1.03	0.422	0.385	0.424	0.356	0.407
EMC-BAC-2	1.05	0.944	0.856	1.05	0.949	1.14	1.07	1.22	1.12	1.21	0.977	0.965	0.95	1	1.04	1.07	1.03	1.3	1.08	0.695
